Data set [1] concerns NCI/ADR-RES. The data set is described as follows: Cytotoxicity against DOX-resistant human MCF7/ADR cells assessed as cell growth inhibition at 5 uM incubated for 48 hrs by CCK8 assay relative to control. Type of data set: functional. (Tetrazolium dyes change colour on reduction, which living cells bring about.)
The subject of data set [2] is MCF7. The data set is described as follows: Cytotoxicity against human MCF7 cells assessed as cell growth inhibition at 5 uM incubated for 48 hrs by CCK8 assay relative to control. The format is functional.
Data set [3] relates to NCI/ADR-RES. The data set is described as follows: Cytotoxicity against DOX-resistant human MCF7/ADR cells assessed as reversal fold of resistance by measuring ratio of doxorubicin IC50 alone to doxorubicin IC50 in presence of test compound incubated for 48 hrs by CCK8 assay. The format is functional.
Data set [4] has as its system NCI/ADR-RES. The data set is described as follows: Downregulation of P-gp expression in DOX-resistant human MCF7/ADR cells at 0.5 to 5 uM incubated for 48 hrs by Western blot analysis. The format is functional, cell-based. The note with it: dose 0.5-5 µM. (In general: In western blotting, separated proteins are transferred to a membrane and probed.)
Data set [5] deals with ATP-dependent translocase ABCB1 (Homo sapiens, UniProt P08183). The data set is described as follows: Inhibition of P-gp in DOX-resistant human MCF7/ADR cells assessed as increase in intracellular Rh123 accumulation incubated for 4 hrs by flow cytometry. The note with it: mcf7adr, at 2.5 to 5 µM, dose 2.5-5 µM. The format is cell-based.
Sequence of ATP-dependent translocase ABCB1 (P08183 whole entry): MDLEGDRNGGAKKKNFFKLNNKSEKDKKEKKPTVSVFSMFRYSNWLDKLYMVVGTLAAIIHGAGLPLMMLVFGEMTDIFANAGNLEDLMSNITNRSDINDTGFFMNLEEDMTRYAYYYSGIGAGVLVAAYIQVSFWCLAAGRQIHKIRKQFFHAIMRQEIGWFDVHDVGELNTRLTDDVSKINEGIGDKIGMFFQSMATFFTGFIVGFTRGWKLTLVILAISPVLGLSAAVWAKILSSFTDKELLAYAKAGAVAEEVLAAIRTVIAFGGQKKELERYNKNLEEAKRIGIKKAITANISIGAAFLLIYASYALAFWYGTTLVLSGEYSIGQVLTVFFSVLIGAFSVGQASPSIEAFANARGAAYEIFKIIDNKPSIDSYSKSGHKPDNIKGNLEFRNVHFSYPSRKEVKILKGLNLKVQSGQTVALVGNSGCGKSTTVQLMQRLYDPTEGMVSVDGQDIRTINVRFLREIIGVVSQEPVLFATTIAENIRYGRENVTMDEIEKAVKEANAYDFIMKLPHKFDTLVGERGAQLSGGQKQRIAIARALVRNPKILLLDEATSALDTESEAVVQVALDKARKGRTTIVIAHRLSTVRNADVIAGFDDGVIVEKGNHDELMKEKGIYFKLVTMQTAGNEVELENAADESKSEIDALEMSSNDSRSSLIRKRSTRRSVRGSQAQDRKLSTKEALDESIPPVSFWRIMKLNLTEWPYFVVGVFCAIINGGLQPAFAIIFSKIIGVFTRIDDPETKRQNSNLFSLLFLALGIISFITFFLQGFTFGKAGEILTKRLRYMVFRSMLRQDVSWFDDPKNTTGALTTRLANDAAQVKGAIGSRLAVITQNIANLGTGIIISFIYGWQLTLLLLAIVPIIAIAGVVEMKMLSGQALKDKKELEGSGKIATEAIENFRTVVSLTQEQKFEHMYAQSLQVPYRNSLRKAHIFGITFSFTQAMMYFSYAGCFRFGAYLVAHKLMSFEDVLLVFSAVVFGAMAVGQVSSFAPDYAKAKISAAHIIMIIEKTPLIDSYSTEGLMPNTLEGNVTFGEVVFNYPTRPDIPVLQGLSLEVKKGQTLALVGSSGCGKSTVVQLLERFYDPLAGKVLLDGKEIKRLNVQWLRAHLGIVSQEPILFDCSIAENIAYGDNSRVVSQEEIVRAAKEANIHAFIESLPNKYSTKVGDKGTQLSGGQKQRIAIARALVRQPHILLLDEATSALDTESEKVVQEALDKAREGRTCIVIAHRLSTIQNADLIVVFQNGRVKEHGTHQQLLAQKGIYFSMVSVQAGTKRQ

The source made the active and inactive calls. No cut-off for these calls is given here.

As for `COc1ccc2cc(C(=O)Nc3ccc(-c4ccc(C(=O)N5CCc6cc(OC)c(OC)cc6C5)o4)cc3)[nH]c2c1`, the figures for the inhibition at 5 µM in data set [1] and in data set [2] were 12.4% and 7.3%, respectively. The “Ratio IC50” value in data set [3] is on record as 437.1.

Take `COc1cc2c(cc1OC)CN(C(=O)c1ccc(-c3ccc(NC(=O)Cc4cccc5ccccc45)cc3)o1)CC2`: in data set [1], the inhibition at 5 µM was 26.3%. Besides, the “Ratio IC50” value in data set [3] worked out at 168.8.

With `COc1cc2c(cc1OC)CN(C(=O)c1ccc(-c3ccc(NC(=O)c4cc5cc(Br)ccc5[nH]4)cc3)o1)CC2`, the inhibition at 5 µM in data set [1] was determined as 19.5%; in data set [2], 26.8%. Besides, the “Ratio IC50” value in data set [3] was 5473.

As to `COc1cc2c(cc1OC)CN(C(=O)c1ccc(-c3ccc(NC(=O)c4ccc5ccccc5c4)cc3)o1)CC2`, the figures for the inhibition at 5 µM in data set [1] and in data set [2] were 23.8% and 29.5%, respectively. The “Ratio IC50” value in data set [3] was found to be 451.1.

As to `COc1cc2c(cc1OC)CN(C(=O)c1ccc(-c3ccc(NC(=O)c4cc5cc(C)ccc5[nH]4)cc3)o1)CC2`, the values for the inhibition at 5 µM in data set [1] and in data set [2] were 10.1% and 8.1%, respectively. In addition, in data set [3], the “Ratio IC50” value was determined as 116.9.

`COc1cc2c(cc1OC)CN(C(=O)c1ccc(-c3ccc(NC(=O)c4cccc5[nH]ccc45)cc3)o1)CC2`: the inhibition at 5 µM is 9.2% in data set [1] and 7.6% in data set [2]. Further, the “Ratio IC50” value in data set [3] came to 220.

For `COc1ccc2[nH]c(C(=O)Nc3ccc(-c4ccc(C(=O)N5CCc6cc(OC)c(OC)cc6C5)o4)cc3)cc2c1`, the inhibition at 5 µM in data set [1] was found to be 16.1%; in data set [2] it was 19.5%. For the same compound, the “Ratio IC50” value in data set [3] amounted to 214.4.

On to `COc1ccc(CCN(C)CCCC(C#N)(c2ccc(OC)c(OC)c2)C(C)C)cc1OC` (stereo not drawn), for which the inhibition at 5 µM in data set [1] is 12.2%.

`COc1cc2c(cc1OC)CN(C(=O)c1ccc(-c3ccc(NC(=O)c4cc5ccccc5[nH]4)cc3)o1)CC2`: the inhibition at 5 µM worked out at 15.1% in data set [1] and 13.3% in data set [2]. For the same compound, the “Ratio IC50” value in data set [3] is 540.5.

Turning to `COc1cc2c(cc1OC)CN(C(=O)c1ccc(-c3ccc(NC(=O)C(C)(C)C)cc3)o1)CC2`, the inhibition at 5 µM in data set [1] came to 23.3%; in data set [2] it was 12.9%. Besides, the “Ratio IC50” value in data set [3] came out at 78.4.

In the case of `COc1cc2c(cc1OC)CN(C(=O)c1ccc(-c3ccc(NC(=O)c4cc5cc(F)ccc5[nH]4)cc3)o1)CC2`, the inhibition at 5 µM in data set [1] was determined as 19.8%; in data set [2] it was 12%. In data set [4], the outcome was inactive. Moreover, the “inhibition (INH)” value in data set [5] is recorded as “Dose-Dependent Effect”. In addition, the “Ratio IC50” value in data set [3] was 1163.

For `C/C=C/C(=O)Nc1ccc(-c2ccc(C(=O)N3CCc4cc(OC)c(OC)cc4C3)o2)cc1`, the results for the inhibition at 5 µM in data set [1] and in data set [2] were 8.8% and 1.7%, respectively. For the same compound, in data set [3], the “Ratio IC50” value was determined as 130.1.

On to `COc1cc2c(cc1OC)CN(C(=O)c1ccc(-c3ccc(NC(=O)c4cc5ccccc5s4)cc3)o1)CC2`, for which the inhibition at 5 µM in data set [1] was determined as 46.8%; in data set [2], 48.8%.

Consider `COc1cc2c(cc1OC)CN(C(=O)c1ccc(-c3ccc(NC(=O)/C=C/c4ccccc4)cc3)o1)CC2`, for which the values for the inhibition at 5 µM in data set [1] and in data set [2] were 14.6% and 14.5%, respectively. The “Ratio IC50” value in data set [3] was determined as 277.7.

As for `COc1cc2c(cc1OC)CN(CCc1ccc(NC(=O)c3cc(OC)c(OC)cc3NC(=O)c3cnc4ccccc4c3)cc1)CC2`, in data set [2], the inhibition at 5 µM turned out to be 21.3%. Further, the “Ratio IC50” value in data set [3] came out at 319.3.

As for `COc1cc2c(cc1OC)CN(C(=O)c1ccc(-c3ccc(NC(=O)C4CCC4)cc3)o1)CC2`, in data set [2], the inhibition at 5 µM is 15.3%. Besides, the “Ratio IC50” value in data set [3] was determined as 82.1.

For the compound `COc1cc2c(cc1OC)CN(C(=O)c1ccc(-c3ccc(NC(=O)c4cc5cc(Cl)ccc5[nH]4)cc3)o1)CC2`, the inhibition at 5 µM turned out to be 14.4% in data set [1] and 15.8% in data set [2]. Besides, in data set [3], the “Ratio IC50” value came to 613.3.

Consider `COc1cc2c(cc1OC)CN(C(=O)c1ccc(-c3ccc(NC(=O)c4csc5ccccc45)cc3)o1)CC2`, for which the inhibition at 5 µM worked out at 41.9% in data set [1] and 37.3% in data set [2].

For `COc1cc2c(cc1OC)CN(C(=O)c1ccc(-c3ccc(NC(=O)c4cc5c(C)cccc5[nH]4)cc3)o1)CC2`, the inhibition at 5 µM in data set [1] was found to be 15.1%; in data set [2], 16.6%. In addition, the “Ratio IC50” value in data set [3] is reported as 88.3.

In the case of `COc1cccc2c1C(=O)c1c(O)c3c(c(O)c1C2=O)C[C@@](O)(C(=O)CO)C[C@@H]3O[C@H]1C[C@H](N)[C@H](O)[C@H](C)O1` [DOXORUBICIN], in data set [3], the “Ratio IC50” value is listed as 1.

`C/C=C/C[C@@H](C)[C@@H](O)[C@H]1C(=O)N[C@@H](CC)C(=O)N(C)CC(=O)N(C)[C@@H](CC(C)C)C(=O)N[C@@H](C(C)C)C(=O)N(C)[C@@H](CC(C)C)C(=O)N[C@@H](C)C(=O)N[C@H](C)C(=O)N(C)[C@@H](CC(C)C)C(=O)N(C)[C@@H](CC(C)C)C(=O)N(C)[C@@H](C(C)C)C(=O)N1C` [CYCLOSPORINE]: the inhibition at 5 µM in data set [1] worked out at 24.5%.

`COc1ccc(-c2ccc(C(=O)N3CCc4cc(OC)c(OC)cc4C3)o2)cc1`: the values for the inhibition at 5 µM in data set [1] and in data set [2] were 25.7% and 11.2%, respectively. Also, in data set [3], the “Ratio IC50” value amounted to 39.4.

With `COc1cc2c(cc1OC)CN(C(=O)c1ccc(-c3ccc(NC(C)=O)cc3)o1)CC2`, the inhibition at 5 µM in data set [1] is 10.1%; in data set [2], 11%. The “Ratio IC50” value in data set [3] is given as 18.6.

For the compound `COc1cc2c(cc1OC)CN(C(=O)c1ccc(-c3ccc(NC(=O)C(C)C)cc3)o1)CC2`, the inhibition at 5 µM was 18.4% in data set [1] and 19.1% in data set [2]. Further, in data set [3], the “Ratio IC50” value worked out at 46.5.

On to `CCC(=O)Nc1ccc(-c2ccc(C(=O)N3CCc4cc(OC)c(OC)cc4C3)o2)cc1`, for which the inhibition at 5 µM was determined as 23.2% in data set [1] and 17.2% in data set [2]. Besides, the “Ratio IC50” value in data set [3] is recorded as 33.3.

`COc1cc2c(cc1OC)CN(C(=O)c1ccc(-c3ccc(NC(=O)c4cc5c(F)cc(F)cc5[nH]4)cc3)o1)CC2`: the inhibition at 5 µM in data set [1] is 14.7%; in data set [2], 9.1%. Also, in data set [3], the “Ratio IC50” value is 600.2.

In the case of `COc1cc2c(cc1OC)CN(C(=O)c1ccc(-c3ccc(NC(=O)c4cc5cc([N+](=O)[O-])ccc5[nH]4)cc3)o1)CC2`, the figures for the inhibition at 5 µM in data set [1] and in data set [2] were 5.7% and 5.1%, respectively. Also, in data set [3], the “Ratio IC50” value was determined as 189.9.

`COc1cc2c(cc1OC)CN(C(=O)c1ccc(-c3ccc(NC(=O)c4c[nH]c5ccccc45)cc3)o1)CC2`: the values for the inhibition at 5 µM in data set [1] and in data set [2] were 18.2% and 16.1%, respectively. The “Ratio IC50” value in data set [3] is on record as 347.

Take `COc1cc2c(cc1OC)CN(C(=O)c1ccc(-c3ccc(NC(=O)c4cc5ccc(F)cc5[nH]4)cc3)o1)CC2`: the inhibition at 5 µM in data set [1] is 16.9%; in data set [2], 28.1%. Further, the “Ratio IC50” value in data set [3] is 566.4.

Regarding `COc1cc2c(cc1OC)CN(C(=O)c1ccc(-c3ccc(NC(=O)CC(C)(C)C)cc3)o1)CC2`, the inhibition at 5 µM in data set [1] was determined as 12.6%; in data set [2], 18.5%. The “Ratio IC50” value in data set [3] is recorded as 52.

`CCCCC(=O)Nc1ccc(-c2ccc(C(=O)N3CCc4cc(OC)c(OC)cc4C3)o2)cc1`: the values for the inhibition at 5 µM in data set [1] and in data set [2] were 13.1% and 17.6%, respectively. The “Ratio IC50” value in data set [3] was 15.7.

Regarding `COc1cc2c(cc1OC)CN(C(=O)c1ccc(-c3ccc(NC(=O)C4CCCC4)cc3)o1)CC2`, the inhibition at 5 µM in data set [1] was 19.8%; in data set [2] it was 15.7%. Moreover, the “Ratio IC50” value in data set [3] is 18.6.

`COc1cc2c(cc1OC)CN(C(=O)c1ccc(-c3ccc(NC(=O)c4cccc5ccccc45)cc3)o1)CC2`: the results for the inhibition at 5 µM in data set [1] and in data set [2] were 28.4% and 34.8%, respectively. Further, the “Ratio IC50” value in data set [3] amounted to 201.7.

Take `COc1cc2c(cc1OC)CN(C(=O)c1ccc(-c3ccc(NC(=O)c4cc5ccc(Br)cc5[nH]4)cc3)o1)CC2`: the inhibition at 5 µM in data set [1] amounted to 14.7%; in data set [2], 7.4%. Further, in data set [3], the “Ratio IC50” value came out at 497.5.

As for `COc1cc2c(cc1OC)CN(C(=O)c1ccc(-c3ccc(NC(=O)c4cc5ccccc5o4)cc3)o1)CC2`, the values for the inhibition at 5 µM in data set [1] and in data set [2] were 63.7% and 44.5%, respectively.

In the case of `COc1cc2c(cc1OC)CN(C(=O)c1ccc(-c3ccc(NC(=O)C4CC4)cc3)o1)CC2`, the inhibition at 5 µM in data set [1] amounted to 10.9%; in data set [2] it was 12.2%. Also, the “Ratio IC50” value in data set [3] is reported as 57.2.

For orientation: inhibition means the drop in the measured response relative to a control, in per cent.

The values are drawn from ChEMBL document CHEMBL5325411, “Design, synthesis and biological evaluation of novel phenylfuran-bisamide derivatives as P-glycoprotein inhibitors against multidrug resistance in MCF-7/ADR cell” (Eur J Med Chem, 2023).
